Experiment [1] deals with T1, D(1A) dopamine receptor (Homo sapiens, UniProt P21728). Description: Displacement of [3H]SCH 23390 from D1 dopamine receptor. In general terms: In a radioligand displacement assay an active substance lowers the binding of a labelled ligand.
Experiment [2] concerns the target T2, D(2) dopamine receptor (Homo sapiens, UniProt P14416). Description: Displacement of [3H]spiperone from D2L dopamine receptor.
In a further experiment the target is D(3) dopamine receptor (Homo sapiens, UniProt P35462). Description: Binding affinity to D3 dopamine receptor by radioligand binding assay.
In experiment [3] the target is T3, D(1B) dopamine receptor (Homo sapiens, UniProt P21918). In words: Binding affinity to D5 dopamine receptor by radioligand binding assay.
Experiment [4] deals with T1, D(1A) dopamine receptor. Description: Inhibition of D1 dopamine receptor in HEK 293 cells by intracellular calcium assay. In kind it is functional, cell-based, HEK293. On the technique in general: Calcium assays in cells follow changes in intracellular calcium, usually with a dye or a luminescent sensor.
Experiment [5] deals with T2, D(2) dopamine receptor. Description: Inhibition of D2L dopamine receptor in HEK 293 cells by intracellular calcium assay. In kind it is functional, cell-based, HEK293.
The target in experiment [6] is T3, D(1B) dopamine receptor. Description: Inhibition of D5 dopamine receptor in HEK 293 cells by intracellular calcium assay. In kind it is functional, cell-based, HEK293.
For another experiment, the target named is T4, D(4) dopamine receptor (Homo sapiens, UniProt P21917).
T4 sequence (P21917 whole entry): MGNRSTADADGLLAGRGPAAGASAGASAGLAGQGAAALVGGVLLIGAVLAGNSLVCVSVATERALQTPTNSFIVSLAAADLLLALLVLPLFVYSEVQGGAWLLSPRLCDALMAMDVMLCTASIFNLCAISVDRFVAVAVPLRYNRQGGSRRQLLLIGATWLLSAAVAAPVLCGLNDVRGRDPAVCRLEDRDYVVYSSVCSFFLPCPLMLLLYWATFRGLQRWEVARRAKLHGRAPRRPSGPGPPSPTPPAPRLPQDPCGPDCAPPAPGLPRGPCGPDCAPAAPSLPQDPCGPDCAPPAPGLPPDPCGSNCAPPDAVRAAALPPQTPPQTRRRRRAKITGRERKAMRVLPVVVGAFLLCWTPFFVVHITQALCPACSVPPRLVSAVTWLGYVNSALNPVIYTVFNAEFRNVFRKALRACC
In words: Binding affinity to D4 dopamine receptor by radioligand binding assay.

D(3) dopamine receptor, sequence (P35462 whole entry): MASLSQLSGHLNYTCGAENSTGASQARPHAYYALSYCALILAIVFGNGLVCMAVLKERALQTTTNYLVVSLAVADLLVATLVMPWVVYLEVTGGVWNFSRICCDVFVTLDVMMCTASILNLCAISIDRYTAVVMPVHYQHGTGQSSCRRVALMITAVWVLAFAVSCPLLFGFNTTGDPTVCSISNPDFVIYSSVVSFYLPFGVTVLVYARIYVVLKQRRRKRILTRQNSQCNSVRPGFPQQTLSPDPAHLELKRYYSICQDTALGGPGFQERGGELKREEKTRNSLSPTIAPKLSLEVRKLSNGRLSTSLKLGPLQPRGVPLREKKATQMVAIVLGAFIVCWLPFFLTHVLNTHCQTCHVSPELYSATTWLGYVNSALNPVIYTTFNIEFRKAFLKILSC
T2 sequence (P14416 whole entry): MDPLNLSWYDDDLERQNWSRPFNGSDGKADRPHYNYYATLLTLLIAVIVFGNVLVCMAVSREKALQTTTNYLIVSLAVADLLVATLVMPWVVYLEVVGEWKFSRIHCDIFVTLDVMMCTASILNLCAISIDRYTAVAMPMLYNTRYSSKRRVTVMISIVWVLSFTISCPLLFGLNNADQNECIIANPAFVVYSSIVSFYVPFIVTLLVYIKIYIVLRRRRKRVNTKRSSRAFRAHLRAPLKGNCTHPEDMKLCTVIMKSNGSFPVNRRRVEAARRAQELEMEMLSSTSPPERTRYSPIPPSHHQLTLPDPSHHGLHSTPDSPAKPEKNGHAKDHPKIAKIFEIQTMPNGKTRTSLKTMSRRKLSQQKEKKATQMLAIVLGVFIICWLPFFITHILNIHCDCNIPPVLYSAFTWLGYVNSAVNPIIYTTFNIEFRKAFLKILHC
T1 sequence (P21728 whole entry): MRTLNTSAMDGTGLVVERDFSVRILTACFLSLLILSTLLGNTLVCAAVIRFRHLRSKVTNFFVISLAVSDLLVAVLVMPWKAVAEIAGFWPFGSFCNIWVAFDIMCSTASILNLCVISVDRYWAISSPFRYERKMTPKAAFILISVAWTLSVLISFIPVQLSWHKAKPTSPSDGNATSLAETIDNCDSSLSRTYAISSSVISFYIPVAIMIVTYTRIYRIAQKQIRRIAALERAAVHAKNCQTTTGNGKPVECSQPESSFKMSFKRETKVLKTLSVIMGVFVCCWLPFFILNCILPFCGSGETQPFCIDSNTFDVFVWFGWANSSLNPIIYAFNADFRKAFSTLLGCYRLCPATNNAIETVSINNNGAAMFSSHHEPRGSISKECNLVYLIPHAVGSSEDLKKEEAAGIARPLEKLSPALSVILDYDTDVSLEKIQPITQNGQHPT
T3 sequence (P21918 whole entry): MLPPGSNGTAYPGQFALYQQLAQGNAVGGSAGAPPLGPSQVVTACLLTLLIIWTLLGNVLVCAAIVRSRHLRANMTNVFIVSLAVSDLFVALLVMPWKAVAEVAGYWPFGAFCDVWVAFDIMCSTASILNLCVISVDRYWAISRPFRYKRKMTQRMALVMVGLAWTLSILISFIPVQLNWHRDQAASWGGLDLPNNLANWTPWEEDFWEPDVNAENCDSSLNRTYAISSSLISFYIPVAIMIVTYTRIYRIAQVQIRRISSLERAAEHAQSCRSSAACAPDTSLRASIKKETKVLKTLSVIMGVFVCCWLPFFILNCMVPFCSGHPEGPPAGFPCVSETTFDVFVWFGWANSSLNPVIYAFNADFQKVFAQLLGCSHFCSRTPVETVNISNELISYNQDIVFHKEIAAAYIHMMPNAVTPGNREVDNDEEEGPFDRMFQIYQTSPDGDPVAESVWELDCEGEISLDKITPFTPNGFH

As for `CN1CCc2ccccc2Cc2cc(O)c(Cl)cc2CC1`, the Ki on D(1A) dopamine receptor [1] was found to be 3.1 nM; at D(2) dopamine receptor [2] it was 2 nM; at D(3) dopamine receptor, 27.7 nM; on D(1B) dopamine receptor [3] it was 4.9 nM; at D(1A) dopamine receptor [4], 10.8 nM; on D(2) dopamine receptor [5], 4.8 nM. Moreover, the Ki on D(1B) dopamine receptor [6] came out at 3.1 nM.
For the compound `CN1CCc2ccccc2Cc2ccc(O)c(Cl)c2CC1`, the Ki stood at 0.83 nM at D(1A) dopamine receptor [1]; 4 nM on D(2) dopamine receptor [2]; 24.6 nM at D(3) dopamine receptor; 0.057 nM on D(1B) dopamine receptor [3]; 5.2 nM on D(4) dopamine receptor; 0.46 nM at D(1A) dopamine receptor [4]. Moreover, the Ki on D(2) dopamine receptor [5] turned out to be 6.1 nM; on D(1B) dopamine receptor [6], 0.053 nM.
`CN1CCc2ccccc2Cc2c(O)cccc2CC1`: the Ki was 8.7 nM at D(1A) dopamine receptor [1]; 84 nM on D(2) dopamine receptor [2]; 215 nM on D(3) dopamine receptor; 64.1 nM on D(1A) dopamine receptor [4]; 7.9 nM at D(2) dopamine receptor [5]; 10.4 nM at D(1B) dopamine receptor [6].
Regarding `COc1c(Cl)cc2c(c1Cl)Cc1ccccc1CCN(C)CC2`, the Ki turned out to be 25.3 nM on D(1A) dopamine receptor [1]; 210 nM at D(2) dopamine receptor [2]; 415 nM on D(3) dopamine receptor; 34 nM at D(1A) dopamine receptor [4]; 2.5 nM on D(2) dopamine receptor [5]; 59 nM at D(1B) dopamine receptor [6].
Consider `COc1ccc2c(c1)CCN(C)CCc1cc(OC)ccc1C2`, for which the Ki is 9.4 nM at D(1A) dopamine receptor [1]; 6.5 nM at D(2) dopamine receptor [2]; 102 nM at D(3) dopamine receptor; 12.6 nM on D(1B) dopamine receptor [3]; 26.9 nM at D(1A) dopamine receptor [4]; 0.62 nM on D(2) dopamine receptor [5]. The Ki at D(1B) dopamine receptor [6] was 11.5 nM.
For `CN1CCc2ccccc2Cc2cc(N)c(O)cc2CC1`, the Ki at D(1A) dopamine receptor [1] turned out to be 9.3 nM; on D(2) dopamine receptor [2], 37.3 nM; on D(1B) dopamine receptor [3] it was 226 nM; at D(1A) dopamine receptor [4], 20.9 nM; at D(2) dopamine receptor [5], 26.1 nM; at D(1B) dopamine receptor [6], 39.5 nM.
Consider `COc1cccc2c1Cc1ccccc1CCN(C)CC2`, for which the Ki at D(1A) dopamine receptor [1] worked out at 7.6 nM; on D(2) dopamine receptor [2] it was 164 nM; at D(3) dopamine receptor it was 1830 nM; at D(1A) dopamine receptor [4], 37.6 nM; on D(2) dopamine receptor [5], 39.9 nM; at D(1B) dopamine receptor [6], 54.6 nM.
As to `COc1ccc2c(c1)CCN(C)CCc1ccccc1C2`, the Ki on D(1A) dopamine receptor [1] amounted to 28.5 nM; at D(2) dopamine receptor [2], 13 nM; on D(3) dopamine receptor, 75.7 nM; at D(1A) dopamine receptor [4] it was 24.1 nM; on D(2) dopamine receptor [5], 0.55 nM; at D(1B) dopamine receptor [6], 7.2 nM.
For `CN1CCc2ccccc2Cc2c(ccc(O)c2Cl)CC1`, the Ki on D(1A) dopamine receptor [1] worked out at 0.46 nM; at D(2) dopamine receptor [2], 0.99 nM; on D(3) dopamine receptor, 1.88 nM; at D(1B) dopamine receptor [3] it was 0.98 nM; on D(1A) dopamine receptor [4] it was 6.8 nM; on D(2) dopamine receptor [5], 0.13 nM. Further, the Ki at D(1B) dopamine receptor [6] worked out at 1.6 nM.
Turning to `CN1CCc2cc(O)ccc2Cc2ccc(O)cc2CC1`, the Ki was 2 nM on D(1A) dopamine receptor [1]; 58.7 nM on D(2) dopamine receptor [2]; 342 nM on D(3) dopamine receptor; 1.68 nM on D(1B) dopamine receptor [3]; 3.3 nM on D(1A) dopamine receptor [4]; 19 nM at D(2) dopamine receptor [5]. Moreover, on D(1B) dopamine receptor [6], the Ki amounted to 0.54 nM.
Regarding `COc1ccc2c(c1)Cc1ccccc1CCN(C)CC2`, the Ki at D(1A) dopamine receptor [1] came to 82 nM; at D(2) dopamine receptor [2] it was 62 nM; at D(3) dopamine receptor, 151 nM; at D(1A) dopamine receptor [4] it was 567 nM; on D(2) dopamine receptor [5] it was 21.1 nM; on D(1B) dopamine receptor [6], 1050 nM.
With `CN1CCc2ccccc2Cc2cc(O)ccc2CC1`, the Ki was 8.9 nM at D(1A) dopamine receptor [1]; 36.9 nM at D(2) dopamine receptor [2]; 296 nM at D(3) dopamine receptor; 42.3 nM at D(1B) dopamine receptor [3]; 2.6 nM at D(1A) dopamine receptor [4]; 19 nM at D(2) dopamine receptor [5]. Besides, the Ki on D(1B) dopamine receptor [6] was found to be 37.5 nM.
Consider `CN1CCc2ccccc2Cc2cc(Cl)c(O)c(Cl)c2CC1`, for which the inhibitory constant (Ki) at D(1A) dopamine receptor [1] is 3.2 nM; at D(2) dopamine receptor [2], 88 nM; at D(1A) dopamine receptor [4] it was 3.8 nM; on D(2) dopamine receptor [5], 37.5 nM; on D(1B) dopamine receptor [6], 1.2 nM.
In the case of `CN1CCc2ccccc2Cc2[nH]c3ccccc3c2CC1`, the Ki on D(1A) dopamine receptor [1] came out at 1.9 nM; at D(2) dopamine receptor [2] it was 44.7 nM; at D(1B) dopamine receptor [3], 7.5 nM; at D(2) dopamine receptor [5], 19 nM; on D(1B) dopamine receptor [6], 12.7 nM.

The Ki is a measure of affinity in units of concentration, obtained from inhibition or displacement.

(Values after ChEMBL document CHEMBL1138197, “Dopamine/serotonin receptor ligands. 12(1): SAR studies on hexahydro-dibenz[d,g]azecines lead to 4-chloro-7-methyl-5,6,7,8,9,14-hexahydrodibenz[d,g]azecin-3-ol, the first picomolar D5-selective dopamine-receptor antagonist” (J Med Chem, 2006).)
